Patent US6706663B2, “Herbicidal 3-heterocyclic substituted benzisothiazole and benzisoxazole compounds” (Wyeth, priority 2000, dated 2004)

Assays:
ORYSAT (Rice, Tebonnet) = assay: Flooded paddy, post-transplant rice tolerance; format: in vivo, Oryza sativa, (L.) Tebonnet; settings: flooded paddy, post-transplant rice, rated 3-4 weeks after treatment, 0-9 rating scale
Outline: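 Two ten-day-old seedlings were transplanted into silt loam, flooded and held at 1.5 to 3 cm water above the soil before herbicide treatment. Pots stayed in the greenhouse at that water level. Injury was scored visually on a 0-9 scale versus untreated control.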

[1] = system: ABUTH (Abutilon theophrasti); assay: Preemergence herbicidal evaluation; format: in vivo, Medic.; settings: rated 4-5 weeks after treatment
SETVI (Setaria viridis) = assay: Postemergence herbicidal evaluation; format: in vivo, (L.) Beau; settings: postemergence
Outline: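 Seedlings about two weeks old were sprayed with compound in 50/50 acetone/water plus 0.5% TWEEN 20, at the equivalent of about 0.0040 to 1.000 kg/ha. Plants were kept in a greenhouse and visually rated 0-9 against a control four to five weeks after treatment. Repeat tests were averaged.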

[2] = system: GLXMAW (Soybean, Williams); assay: Preemergence herbicidal evaluation; format: in vivo, Glycine max, (L.) Merr. cv Williams; settings: rated 4-5 weeks after treatment
[3] = system: SAGPY (Sagittaria pygmaea); assay: Flooded paddy, preemergence weed control; format: in vivo, L.; settings: rated 3-4 weeks after treatment, 0-9 rating scale
Outline: (§1)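 Preemergence, flooded: propagules planted at 0.5 cm depth in silt loam, water level maintained at 1.5 to 3 cm over soil, containers kept on greenhouse benches. Activity scored 0-9 by eye relative to a control plant.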

[4] = system: IPOHE (Ipomoea hederacea); assay: Preemergence herbicidal evaluation; format: in vivo, (L.) Jacq.; settings: rated 4-5 weeks after treatment
[5] = system: MOOVA (Monochoria vaginalis); assay: Flooded paddy, preemergence weed control; format: in vivo, Presl.; settings: rated 3-4 weeks after treatment, 0-9 rating scale
Outline: as §1

CYPIR (Cyperus iria) = assay: Flooded paddy, preemergence weed control; format: in vivo; settings: rated 3-4 weeks after treatment, 0-9 rating scale
Outline: as §1

ZEAMX (Corn, Field) = assay: Preemergence herbicidal evaluation; format: in vivo, Zea mays, L.; settings: rated 4-5 weeks after treatment
[6] = system: TRZAWR (Wheat, Winter, cv Riband); assay: Postemergence herbicidal evaluation; format: in vivo, Triticum aestivum; settings: postemergence
Outline: (§2)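 Seedlings grown about two weeks in flats, sprayed, then kept under standard greenhouse care. Rated visually 4–5 weeks after treatment on a 0–9 scale (stand, vigour, malformation, size, chlorosis, overall appearance) relative to untreated control; repeat tests averaged.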

[7] = system: CASOB (Cassia obtusifolia); assay: Preemergence herbicidal evaluation; format: in vivo, L.; settings: rated 4-5 weeks after treatment
Outline: (§3)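 Scores (0–9) reflect visual comparison with control plants for stand, vigor, malformation, size and chlorosis. Seeds in potting soil received a post-planting spray of compound in aqueous acetone and grew in a greenhouse until assessment 4–5 weeks later.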

[8] = system: CHEAL (Chenopodium album); assay: Preemergence herbicidal evaluation; format: in vivo, L.; settings: rated 4-5 weeks after treatment
Outline: as §3

[9] = system: AMBEL (Ambrosia artemisifolia); assay: Preemergence herbicidal evaluation; format: in vivo, L.; settings: rated 4-5 weeks after treatment
Outline: as §3

[10] = system: ECHCG (Echinochloa crus-galli); assay: Postemergence herbicidal evaluation; format: in vivo, (L.) Beau; settings: postemergence
Outline: as §2

[11] = system: ECHORC (Echinochloa oryzoides); assay: Flooded paddy, preemergence weed control; format: in vivo, Echinochloa oryzoides (Ard.) Fritsch.; settings: rated 3-4 weeks after treatment, 0-9 rating scale
Outline: as §1

Cn1c(C(F)(F)F)cc(=O)n(-c2ccc3snc(C4OCC(CCl)O4)c3c2)c1=O (stereo not drawn) [Compound 72, 3-[3-[4-(chloromethyl)-1,3-dioxolan-2-yl]-1,2-benzisothiazol-5-yl]-1-methyl-6-(trifluoromethyl)uracil]
herbicidal rating, ORYSAT (rice tolerance) (ORYSAT (Rice, Tebonnet); rate 0.0080 kg/ha): 0.0
herbicidal rating, ORYSAT (rice tolerance) (ORYSAT (Rice, Tebonnet); rate 0.0320 kg/ha): 7.0
herbicidal rating, ORYSAT (rice tolerance) (ORYSAT (Rice, Tebonnet); rate 0.1250 kg/ha): 8.0
Preemergence herbicidal rating ABUTH ([1]; Rate 0.0620 kg/ha): 9.0
Preemergence herbicidal rating ABUTH ([1]; Rate 0.1250 kg/ha): 9.0
Preemergence herbicidal rating ABUTH ([1]; Rate 0.2500 kg/ha): 9.0
SETVI herbicidal rating (SETVI (Setaria viridis); rate 0.0320 kg/ha): 8.0
SETVI herbicidal rating (SETVI (Setaria viridis); rate 0.0620 kg/ha): 8.0
Preemergence herbicidal rating GLXMAW ([2]; Rate 0.0620 kg/ha): 6.5
Preemergence herbicidal rating GLXMAW ([2]; Rate 0.1250 kg/ha): 9.0
Preemergence herbicidal rating GLXMAW ([2]; Rate 0.2500 kg/ha): 9.0
herbicidal rating, SAGPY ([3]; rate 0.0080 kg/ha): 0.0
herbicidal rating, SAGPY ([3]; rate 0.0320 kg/ha): 0.0
herbicidal rating, SAGPY ([3]; rate 0.1250 kg/ha): 8.0
Preemergence herbicidal rating IPOHE ([4]; Rate 0.0620 kg/ha): 3.5
Preemergence herbicidal rating IPOHE ([4]; Rate 0.1250 kg/ha): 6.5
Preemergence herbicidal rating IPOHE ([4]; Rate 0.2500 kg/ha): 8.0
herbicidal rating, MOOVA ([5]; rate 0.0080 kg/ha): 0.0
herbicidal rating, MOOVA ([5]; rate 0.0320 kg/ha): 9.0
herbicidal rating, MOOVA ([5]; rate 0.1250 kg/ha): 9.0
herbicidal rating, CYPIR (CYPIR (Cyperus iria); rate 0.0080 kg/ha): 0.0
herbicidal rating, CYPIR (CYPIR (Cyperus iria); rate 0.0320 kg/ha): 3.0
herbicidal rating, CYPIR (CYPIR (Cyperus iria); rate 0.1250 kg/ha): 9.0
Preemergence herbicidal rating ZEAMX (ZEAMX (Corn, Field); Rate 0.0620 kg/ha): 8.0
Preemergence herbicidal rating ZEAMX (ZEAMX (Corn, Field); Rate 0.1250 kg/ha): 8.5
Preemergence herbicidal rating ZEAMX (ZEAMX (Corn, Field); Rate 0.2500 kg/ha): 9.0
TRZAWR herbicidal rating ([6]; rate 0.0320 kg/ha): 3.5
TRZAWR herbicidal rating ([6]; rate 0.0620 kg/ha): 4.5
Preemergence herbicidal rating CASOB ([7]; Rate 0.0620 kg/ha): 3.0
Preemergence herbicidal rating CASOB ([7]; Rate 0.1250 kg/ha): 6.5
Preemergence herbicidal rating CASOB ([7]; Rate 0.2500 kg/ha): 8.0
Preemergence herbicidal rating CHEAL ([8]; Rate 0.0620 kg/ha): 9.0
Preemergence herbicidal rating CHEAL ([8]; Rate 0.1250 kg/ha): 9.0
Preemergence herbicidal rating CHEAL ([8]; Rate 0.2500 kg/ha): 9.0
Preemergence herbicidal rating AMBEL ([9]; Rate 0.0620 kg/ha): 9.0
Preemergence herbicidal rating AMBEL ([9]; Rate 0.1250 kg/ha): 9.0
Preemergence herbicidal rating AMBEL ([9]; Rate 0.2500 kg/ha): 9.0
ECHCG herbicidal rating ([10]; rate 0.0320 kg/ha): 3.0
ECHCG herbicidal rating ([10]; rate 0.0620 kg/ha): 3.0
herbicidal rating, ECHORC ([11]; rate 0.0080 kg/ha): 5.0
herbicidal rating, ECHORC ([11]; rate 0.0320 kg/ha): 9.0
herbicidal rating, ECHORC ([11]; rate 0.1250 kg/ha): 9.0

Cn1c(C(F)(F)F)cc(=O)n(-c2ccc3snc(C4OCC(CO)O4)c3c2)c1=O (stereo not drawn) [Compound 73, 3-[3-[4-(hydroxymethyl)-1,3-dioxolan-2-yl]-1,2-benzisothiazol-5-yl]-1-methyl-6-(trifluoromethyl)uracil]
herbicidal rating, ORYSAT (rice tolerance) (ORYSAT (Rice, Tebonnet); rate 0.0080 kg/ha): 0.0
herbicidal rating, ORYSAT (rice tolerance) (ORYSAT (Rice, Tebonnet); rate 0.0320 kg/ha): 0.0
herbicidal rating, ORYSAT (rice tolerance) (ORYSAT (Rice, Tebonnet); rate 0.1250 kg/ha): 5.0
Preemergence herbicidal rating ABUTH ([1]; Rate 0.0620 kg/ha): 9.0
Preemergence herbicidal rating ABUTH ([1]; Rate 0.1250 kg/ha): 9.0
Preemergence herbicidal rating ABUTH ([1]; Rate 0.2500 kg/ha): 9.0
SETVI herbicidal rating (SETVI (Setaria viridis); rate 0.0320 kg/ha): 4.0
SETVI herbicidal rating (SETVI (Setaria viridis); rate 0.0620 kg/ha): 8.0
Preemergence herbicidal rating GLXMAW ([2]; Rate 0.0620 kg/ha): 4.0
Preemergence herbicidal rating GLXMAW ([2]; Rate 0.1250 kg/ha): 7.0
Preemergence herbicidal rating GLXMAW ([2]; Rate 0.2500 kg/ha): 8.0
herbicidal rating, SAGPY ([3]; rate 0.0080 kg/ha): 0.0
herbicidal rating, SAGPY ([3]; rate 0.0320 kg/ha): 0.0
herbicidal rating, SAGPY ([3]; rate 0.1250 kg/ha): 3.0
Preemergence herbicidal rating IPOHE ([4]; Rate 0.0620 kg/ha): 7.0
Preemergence herbicidal rating IPOHE ([4]; Rate 0.1250 kg/ha): 9.0
Preemergence herbicidal rating IPOHE ([4]; Rate 0.2500 kg/ha): 9.0
herbicidal rating, MOOVA ([5]; rate 0.0080 kg/ha): 0.0
herbicidal rating, MOOVA ([5]; rate 0.0320 kg/ha): 0.0
herbicidal rating, MOOVA ([5]; rate 0.1250 kg/ha): 9.0
herbicidal rating, CYPIR (CYPIR (Cyperus iria); rate 0.0080 kg/ha): 0.0
herbicidal rating, CYPIR (CYPIR (Cyperus iria); rate 0.0320 kg/ha): 0.0
herbicidal rating, CYPIR (CYPIR (Cyperus iria); rate 0.1250 kg/ha): 9.0
Preemergence herbicidal rating ZEAMX (ZEAMX (Corn, Field); Rate 0.0620 kg/ha): 6.5
Preemergence herbicidal rating ZEAMX (ZEAMX (Corn, Field); Rate 0.1250 kg/ha): 9.0
Preemergence herbicidal rating ZEAMX (ZEAMX (Corn, Field); Rate 0.2500 kg/ha): 9.0
TRZAWR herbicidal rating ([6]; rate 0.0320 kg/ha): 3.5
TRZAWR herbicidal rating ([6]; rate 0.0620 kg/ha): 4.0
Preemergence herbicidal rating CASOB ([7]; Rate 0.0620 kg/ha): 2.5
Preemergence herbicidal rating CASOB ([7]; Rate 0.1250 kg/ha): 6.0
Preemergence herbicidal rating CASOB ([7]; Rate 0.2500 kg/ha): 8.0
Preemergence herbicidal rating CHEAL ([8]; Rate 0.0620 kg/ha): 9.0
Preemergence herbicidal rating CHEAL ([8]; Rate 0.1250 kg/ha): 9.0
Preemergence herbicidal rating CHEAL ([8]; Rate 0.2500 kg/ha): 9.0
Preemergence herbicidal rating AMBEL ([9]; Rate 0.0620 kg/ha): 8.5
Preemergence herbicidal rating AMBEL ([9]; Rate 0.1250 kg/ha): 9.0
Preemergence herbicidal rating AMBEL ([9]; Rate 0.2500 kg/ha): 9.0
ECHCG herbicidal rating ([10]; rate 0.0320 kg/ha): 2.0
ECHCG herbicidal rating ([10]; rate 0.0620 kg/ha): 3.0
herbicidal rating, ECHORC ([11]; rate 0.0080 kg/ha): 0.0
herbicidal rating, ECHORC ([11]; rate 0.0320 kg/ha): 0.0
herbicidal rating, ECHORC ([11]; rate 0.1250 kg/ha): 7.0
